Source: PubChem BioAssay AID2060604 (Molecular Pharmacology Branch, DTP, NCI, 2025)

Tested on: 379773-124-R-J2-PDC complex spheroids, viability % test/control
Assay: Anticancer human tumor 379773-124-R-J2-PDC patient-derived endometrial carcinoma cell line growth inhibition [CLK]
Settings: for IC50: curve of first compound; for viability, T/C: stronger effect = lower value
In short: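 Patient-derived tumor cells grown as complex spheroids with HUVEC endothelial cells and mesenchymal stem cells, treated with drug combinations. Concentrations descend in half-log steps from near clinical Cmax, or from 10 microM if Cmax unknown.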

[1] = second compound 0.0316 µM, first compound 0.0316 µM
[2] = second compound 0.0316 µM, first compound 0.1 µM
[3] = second compound 0.0316 µM, first compound 0.316 µM
[4] = second compound 0.0316 µM, first compound 1 µM
[5] = second compound 0.0316 µM, first compound 3.16 µM
[6] = second compound 0.0316 µM, first compound 10 µM
[7] = second compound 0.1 µM, first compound 0.0316 µM
[8] = second compound 0.1 µM, first compound 0.1 µM
[9] = second compound 0.1 µM, first compound 0.316 µM
[10] = second compound 0.1 µM, first compound 1 µM
[11] = second compound 0.1 µM, first compound 3.16 µM
[12] = second compound 0.1 µM, first compound 10 µM
[13] = second compound 0.316 µM, first compound 0.0316 µM
[14] = second compound 0.316 µM, first compound 0.1 µM
[15] = second compound 0.316 µM, first compound 0.316 µM
[16] = second compound 0.316 µM, first compound 1 µM
[17] = second compound 0.316 µM, first compound 3.16 µM
[18] = second compound 0.316 µM, first compound 10 µM
[19] = second compound 1 µM, first compound 0.0316 µM
[20] = second compound 1 µM, first compound 0.1 µM
[21] = second compound 1 µM, first compound 0.316 µM
[22] = second compound 1 µM, first compound 1 µM
[23] = second compound 1 µM, first compound 3.16 µM
[24] = second compound 1 µM, first compound 10 µM
[25] = second compound 3.16 µM, first compound 0.0316 µM
[26] = second compound 3.16 µM, first compound 0.1 µM
[27] = second compound 3.16 µM, first compound 0.316 µM
[28] = second compound 3.16 µM, first compound 1 µM
[29] = second compound 3.16 µM, first compound 3.16 µM
[30] = second compound 3.16 µM, first compound 10 µM
[31] = second compound 10 µM, first compound 0.0316 µM
[32] = second compound 10 µM, first compound 0.1 µM
[33] = second compound 10 µM, first compound 0.316 µM
[34] = second compound 10 µM, first compound 1 µM
[35] = second compound 10 µM, first compound 3.16 µM
[36] = second compound 10 µM, first compound 10 µM
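Also: compound exposure lasted seven days before the viability readout.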
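For viability, T/C in this document: 100% = DMSO vehicle control wells.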

Structure (SMILES): C=CC(=O)N1CCN(c2nc(=O)n(-c3c(C)ccnc3C(C)C)c3nc(-c4c(O)cccc4F)c(F)cc23)C(C)C1 (stereo unspecified) + CNC(=O)c1ccc(Nc2nc(OC3CCCC3)c3c(-c4ccc5nc(C)oc5c4)c[nH]c3n2)c(OC)c1
- IC50 (second compound 0.0316 µM): > 10000 nM
- IC50 (second compound 0.1 µM): < 31.6 nM
- IC50 (second compound 0.316 µM): < 31.6 nM
- IC50 (second compound 1 µM): < 31.6 nM
- IC50 (second compound 3.16 µM): < 31.6 nM
- IC50 (second compound 10 µM): < 31.6 nM
- viability, T/C [1]: 74.3%
- viability, T/C [2]: 80%
- viability, T/C [3]: 76.1%
- viability, T/C [4]: 76.5%
- viability, T/C [5]: 76.5%
- viability, T/C [6]: 71.3%
- viability, T/C [7]: 34.9%
- viability, T/C [8]: 46.9%
- viability, T/C [9]: 42.7%
- viability, T/C [10]: 39.2%
- viability, T/C [11]: 36.6%
- viability, T/C [12]: 38.3%
- viability, T/C [13]: 43.6%
- viability, T/C [14]: 33%
- viability, T/C [15]: 41.9%
- viability, T/C [16]: 41.6%
- viability, T/C [17]: 37%
- viability, T/C [18]: 38.5%
- viability, T/C [19]: 34.6%
- viability, T/C [20]: 33.1%
- viability, T/C [21]: 45%
- viability, T/C [22]: 34.5%
- viability, T/C [23]: 32.6%
- viability, T/C [24]: 28.4%
- viability, T/C [25]: 31.1%
- viability, T/C [26]: 34.5%
- viability, T/C [27]: 34.9%
- viability, T/C [28]: 28.1%
- viability, T/C [29]: 29%
- viability, T/C [30]: 27.7%
- viability, T/C [31]: 27.8%
- viability, T/C [32]: 33.1%
- viability, T/C [33]: 29.2%
- viability, T/C [34]: 28.2%
- viability, T/C [35]: 40%
- viability, T/C [36]: 18.4%

Structure (SMILES): CCCS(=O)(=O)Nc1ccc(F)c(C(=O)c2c[nH]c3ncc(-c4ccc(Cl)cc4)cc23)c1F + CNC(=O)c1ccc(Nc2nc(OC3CCCC3)c3c(-c4ccc5nc(C)oc5c4)c[nH]c3n2)c(OC)c1
- IC50 (second compound 0.0316 µM): 8070 nM
- IC50 (second compound 0.1 µM): < 31.6 nM
- IC50 (second compound 0.316 µM): < 31.6 nM
- IC50 (second compound 1 µM): < 31.6 nM
- IC50 (second compound 3.16 µM): < 31.6 nM
- IC50 (second compound 10 µM): < 31.6 nM
- viability, T/C [1]: 74.1%
- viability, T/C [2]: 81.7%
- viability, T/C [3]: 82.3%
- viability, T/C [4]: 91.5%
- viability, T/C [5]: 72.3%
- viability, T/C [6]: 44.9%
- viability, T/C [7]: 42%
- viability, T/C [8]: 39%
- viability, T/C [9]: 34.4%
- viability, T/C [10]: 41.1%
- viability, T/C [11]: 38%
- viability, T/C [12]: 17.4%
- viability, T/C [13]: 39.5%
- viability, T/C [14]: 30.1%
- viability, T/C [15]: 39%
- viability, T/C [16]: 38.6%
- viability, T/C [17]: 39.8%
- viability, T/C [18]: 22.2%
- viability, T/C [19]: 38.7%
- viability, T/C [20]: 35.2%
- viability, T/C [21]: 31%
- viability, T/C [22]: 31.6%
- viability, T/C [23]: 35.8%
- viability, T/C [24]: 19%
- viability, T/C [25]: 35%
- viability, T/C [26]: 36.7%
- viability, T/C [27]: 35.7%
- viability, T/C [28]: 32.3%
- viability, T/C [29]: 32.4%
- viability, T/C [30]: 18.2%
- viability, T/C [31]: 33.5%
- viability, T/C [32]: 27.9%
- viability, T/C [33]: 29.6%
- viability, T/C [34]: 39.1%
- viability, T/C [35]: 40.4%
- viability, T/C [36]: 13.2%

Structure (SMILES): COC1C=CCC(C)C(C)S(=O)(=O)NC(=O)c2ccc3c(c2)N(CC2CCC21)CC1(CCCc2cc(Cl)ccc21)CO3 (stereo unspecified) + CNC(=O)c1ccc(Nc2nc(OC3CCCC3)c3c(-c4ccc5nc(C)oc5c4)c[nH]c3n2)c(OC)c1
- IC50 (second compound 0.0316 µM): 5290 nM
- IC50 (second compound 0.1 µM): < 31.6 nM
- IC50 (second compound 0.316 µM): < 31.6 nM
- IC50 (second compound 1 µM): < 31.6 nM
- IC50 (second compound 3.16 µM): < 31.6 nM
- IC50 (second compound 10 µM): < 31.6 nM
- viability, T/C [1]: 85.2%
- viability, T/C [2]: 82.8%
- viability, T/C [3]: 90.5%
- viability, T/C [4]: 90%
- viability, T/C [5]: 90%
- viability, T/C [6]: 3.4%
- viability, T/C [7]: 41.3%
- viability, T/C [8]: 35.1%
- viability, T/C [9]: 33.8%
- viability, T/C [10]: 29.2%
- viability, T/C [11]: 37%
- viability, T/C [12]: 3.05%
- viability, T/C [13]: 37.3%
- viability, T/C [14]: 39.6%
- viability, T/C [15]: 30.1%
- viability, T/C [16]: 20.1%
- viability, T/C [17]: 20.5%
- viability, T/C [18]: 2.22%
- viability, T/C [19]: 36.4%
- viability, T/C [20]: 36.4%
- viability, T/C [21]: 25.6%
- viability, T/C [22]: 20.1%
- viability, T/C [23]: 18.1%
- viability, T/C [24]: 2.26%
- viability, T/C [25]: 31.5%
- viability, T/C [26]: 33.8%
- viability, T/C [27]: 23.3%
- viability, T/C [28]: 18.4%
- viability, T/C [29]: 13%
- viability, T/C [30]: 1.56%
- viability, T/C [31]: 35.1%
- viability, T/C [32]: 42.5%
- viability, T/C [33]: 30.4%
- viability, T/C [34]: 21.6%
- viability, T/C [35]: 11.7%
- viability, T/C [36]: 1.66%
